What was measured:
first-pass cells [1] = assay: Enrichment of EPCs from first-pass cells on plasma-coated flasks in the presence of progesterone, flow-cytometry staining; assay type: cell-based, human; conditions: 0.02-2 microgram/ml progesterone, 5-20% autologous serum, VEGF, Heparin, 3 experiments
Description: Coating T-75 Flasks with Autologous Plasma Example 2 for High % Serum Medium Culturing Collection of Cells for FACS Staining FACS Staining In a set of separate experiments, enrichment of EPCs from first-pass cells was evaluated following in-vitro growth on autologous plasma-coated T-75 Flasks in the presence of medium containing autologous serum, VEGF, progesterone and Heparin. These experiments were conducted with human blood, using the protocol described hereinabove. […] FACS staining results of cells cultured in media containing 5-20% autologous serum (typically 10%), 1, 2, 10, or 20 ng/ml VEGF, 0.02-2 microgram/ml progesterone and 5-25 IU/ml Heparin are summarized. The following surface markers were analyzed: CD45 (a pan-lymphocyte marker), the stem/progenitor cell markers CD34 and CD117, and the EPC/endothelial cell markers CD133 and KDR (VEGF-R).

first-pass cells [2] = assay: Enrichment of EPCs from first-pass cells on plasma-coated flasks in the presence of 17-β-estradiol, flow-cytometry staining; assay type: cell-based, human; conditions: 0.002-2 microgram/ml 17-β-Estradiol, 5-20% autologous serum, VEGF, Heparin, 3 experiments
Description: Coating T-75 Flasks with Autologous Plasma Example 3 for High % Serum Medium Culturing Collection of Cells for FACS Staining FACS Staining In a set of separate experiments, enrichment of EPCs from first-pass cells was evaluated following in-vitro growth on autologous plasma-coated T-75 Flasks in the presence of medium containing autologous serum, VEGF, 17-beta-estradiol and Heparin. These were experiments conducted with human blood, using the protocol described hereinabove. […] FACS staining results of cells cultured in media containing 5-20% autologous serum (typically 10%), 1, 2, 10, or 20 ng/ml VEGF, 0.002-2 microgram/ml 17-β-Estradiol and 5-25 IU/ml Heparin are summarized. The following surface markers were analyzed: CD45 (a pan-lymphocyte marker), the stem/progenitor cell markers CD34 and CD117, and the EPC/endothelial cell markers CD133, and KDR (VEGF-R).

| Compound | CD34 AVG percentage staining (first-pass cells [1]) [%] | CD45 AVG percentage staining (first-pass cells [1]) [%] | CD117 AVG percentage staining (first-pass cells [1]) [%] | CD133 AVG percentage staining (first-pass cells [1]) [%] | KDR AVG percentage staining (first-pass cells [1]) [%] | CD34 average percentage staining (first-pass cells [2]) [%] | CD45 average percentage staining (first-pass cells [2]) [%] | CD117 average percentage staining (first-pass cells [2]) [%] | CD133 average percentage staining (first-pass cells [2]) [%] | KDR average percentage staining (first-pass cells [2]) [%] |
| --- | --- | --- | --- | --- | --- | --- | --- | --- | --- | --- |
| CC(=O)[C@H]1CC[C@H]2[C@@H]3CCC4=CC(=O)CC[C@]4(C)[C@H]3CC[C@]12C [progesterone] | 21.22 | 94.82 | 5.54 | 5.72 | 1.05 |  |  |  |  |  |
| C[C@]12CC[C@@H]3c4ccc(O)cc4CC[C@H]3[C@@H]1CC[C@@H]2O [17-β-estradiol] |  |  |  |  |  | 4.12 | 96.14 | 1.41 | 1.77 | 0.28 |
